How the values were obtained:
[1] = test system: Tyrosine-protein kinase ABL1 (Homo sapiens), P00519 [F317L]; conditions: Compound concentration 1000.0 nM
[2] = test system: Tyrosine-protein kinase ABL1 (Homo sapiens), P00519 [H396P]; conditions: Compound concentration 1000.0 nM
[3] = test system: Tyrosine-protein kinase ABL1 (Homo sapiens), P00519 [Q252H]; conditions: Compound concentration 1000.0 nM
[4] = test system: Tyrosine-protein kinase ABL1 (Homo sapiens), P00519 [T315I]; conditions: Compound concentration 1000.0 nM
[5] = molecular target: Activin receptor type-1 (Homo sapiens) (UniProt Q04771); conditions: Compound concentration 1000.0 nM
[6] = molecular target: ALK tyrosine kinase receptor (Homo sapiens) (UniProt Q9UM73); conditions: Compound concentration 1000.0 nM
[7] = molecular target: 5'-AMP-activated protein kinase catalytic subunit alpha-2 (Homo sapiens) (UniProt P54646); conditions: Compound concentration 1000.0 nM
[8] = molecular target: Tyrosine-protein kinase Blk (Homo sapiens) (UniProt P51451); conditions: Compound concentration 1000.0 nM
[9] = molecular target: Calcium/calmodulin-dependent protein kinase type 1G (Homo sapiens) (UniProt Q96NX5); conditions: Compound concentration 1000.0 nM
[10] = molecular target: Calcium/calmodulin-dependent protein kinase kinase 1 (Homo sapiens) (UniProt Q8N5S9); conditions: Compound concentration 1000.0 nM
[11] = molecular target: Macrophage colony-stimulating factor 1 receptor (Homo sapiens) (UniProt P07333); conditions: Compound concentration 1000.0 nM
[12] = molecular target: Casein kinase I isoform alpha (Homo sapiens) (UniProt P48729); conditions: Compound concentration 1000.0 nM
[13] = molecular target: Casein kinase I isoform alpha-like (Homo sapiens) (UniProt Q8N752); conditions: Compound concentration 1000.0 nM
[14] = molecular target: Casein kinase II subunit alpha (Homo sapiens) (UniProt P68400); conditions: Compound concentration 1000.0 nM
[15] = molecular target: Serine/threonine-protein kinase DCLK3 (Homo sapiens) (UniProt Q9C098); conditions: Compound concentration 1000.0 nM
[16] = molecular target: Serine/threonine-protein kinase 17A (Homo sapiens) (UniProt Q9UEE5); conditions: Compound concentration 1000.0 nM
[17] = test system: Epidermal growth factor receptor (Homo sapiens), P00533 [UNDEFINED MUTATION]; conditions: Compound concentration 1000.0 nM
[18] = test system: Epidermal growth factor receptor (Homo sapiens), P00533 [L858R,T790M]; conditions: Compound concentration 1000.0 nM
[19] = molecular target: Ephrin type-A receptor 3 (Homo sapiens) (UniProt P29320); conditions: Compound concentration 1000.0 nM
[20] = molecular target: Receptor tyrosine-protein kinase erbB-2 (Homo sapiens) (UniProt P04626); conditions: Compound concentration 1000.0 nM
[21] = molecular target: Mitogen-activated protein kinase 3 (Homo sapiens) (UniProt P27361); conditions: Compound concentration 1000.0 nM
[22] = molecular target: Mitogen-activated protein kinase 6 (Homo sapiens) (UniProt Q16659); conditions: Compound concentration 1000.0 nM
[23] = molecular target: Vascular endothelial growth factor receptor 3 (Homo sapiens) (UniProt P35916); conditions: Compound concentration 1000.0 nM
[24] = molecular target: Tyrosine-protein kinase HCK (Homo sapiens) (UniProt P08631); conditions: Compound concentration 1000.0 nM
[25] = molecular target: Insulin receptor (Homo sapiens) (UniProt P06213); conditions: Compound concentration 1000.0 nM
[26] = molecular target: Interleukin-1 receptor-associated kinase 4 (Homo sapiens) (UniProt Q9NWZ3); conditions: Compound concentration 1000.0 nM
[27] = molecular target: Tyrosine-protein kinase JAK3 (Homo sapiens) (UniProt P52333); conditions: Compound concentration 1000.0 nM
[28] = molecular target: Serine/threonine-protein kinase 10 (Homo sapiens) (UniProt O94804); conditions: Compound concentration 1000.0 nM
[29] = molecular target: Mitogen-activated protein kinase kinase kinase 1 (Homo sapiens) (UniProt Q13233); conditions: Compound concentration 1000.0 nM
[30] = molecular target: MAP kinase-interacting serine/threonine-protein kinase 1 (Homo sapiens) (UniProt Q9BUB5); conditions: Compound concentration 1000.0 nM
[31] = molecular target: Myosin-IIIb (Homo sapiens) (UniProt Q8WXR4); conditions: Compound concentration 1000.0 nM
[32] = test system: Phosphatidylinositol 4,5-bisphosphate 3-kinase catalytic subunit alpha isoform (Homo sapiens), P42336 [C420R]; conditions: Compound concentration 1000.0 nM
[33] = molecular target: Phosphatidylinositol 4-kinase beta (Homo sapiens) (UniProt Q9UBF8); conditions: Compound concentration 1000.0 nM
[34] = molecular target: Phosphatidylinositol 4-phosphate 5-kinase type-1 gamma (Homo sapiens) (UniProt O60331); conditions: Compound concentration 1000.0 nM
[35] = molecular target: Serine/threonine-protein kinase N2 (Homo sapiens) (UniProt Q16513); conditions: Compound concentration 1000.0 nM
[36] = molecular target: Ribosomal protein S6 kinase alpha-2 (Homo sapiens) (UniProt Q15349); conditions: Compound concentration 1000.0 nM
[37] = molecular target: Serine/threonine-protein kinase tousled-like 2 (Homo sapiens) (UniProt Q86UE8); conditions: Compound concentration 1000.0 nM
[38] = molecular target: High affinity nerve growth factor receptor (Homo sapiens) (UniProt P04629); conditions: Compound concentration 1000.0 nM
[39] = molecular target: Testis-specific serine/threonine-protein kinase 3 (Homo sapiens) (UniProt Q96PN8); conditions: Compound concentration 1000.0 nM
[40] = molecular target: D(1B) dopamine receptor (Homo sapiens) (UniProt P21918); conditions: Compound concentration 10.0 uM
[41] = molecular target: GABA-A receptor; anion channel (Rattus norvegicus) (UniProt O09028+P15431+P18506+P18508+P19969+P20236+P23574+P23576+P28471+P28473+P30191+P62813+P63079+P63138+Q91ZM7+Q9ES14); conditions: Compound concentration 10.0 uM
Histamine H4 receptor = Histamine H4 receptor (Homo sapiens, UniProt Q9H3N8); conditions: Compound concentration 10.0 uM
[42] = molecular target: Alpha-2C adrenergic receptor (Homo sapiens) (UniProt P18825); conditions: Compound concentration 10.0 uM
[43] = molecular target: Sigma non-opioid intracellular receptor 1 (Homo sapiens) (UniProt Q99720); conditions: Compound concentration 10.0 uM
Chain of Sigma non-opioid intracellular receptor 1 (Homo sapiens) (Q99720 whole entry): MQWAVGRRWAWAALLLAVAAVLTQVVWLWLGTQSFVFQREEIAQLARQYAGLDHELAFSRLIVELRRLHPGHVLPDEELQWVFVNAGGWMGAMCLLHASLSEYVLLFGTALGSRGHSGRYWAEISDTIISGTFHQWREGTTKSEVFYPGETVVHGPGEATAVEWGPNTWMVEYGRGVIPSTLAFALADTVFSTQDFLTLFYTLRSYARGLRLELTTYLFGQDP

Chain of Macrophage colony-stimulating factor 1 receptor (Homo sapiens) (P07333 whole entry, canonical isoform): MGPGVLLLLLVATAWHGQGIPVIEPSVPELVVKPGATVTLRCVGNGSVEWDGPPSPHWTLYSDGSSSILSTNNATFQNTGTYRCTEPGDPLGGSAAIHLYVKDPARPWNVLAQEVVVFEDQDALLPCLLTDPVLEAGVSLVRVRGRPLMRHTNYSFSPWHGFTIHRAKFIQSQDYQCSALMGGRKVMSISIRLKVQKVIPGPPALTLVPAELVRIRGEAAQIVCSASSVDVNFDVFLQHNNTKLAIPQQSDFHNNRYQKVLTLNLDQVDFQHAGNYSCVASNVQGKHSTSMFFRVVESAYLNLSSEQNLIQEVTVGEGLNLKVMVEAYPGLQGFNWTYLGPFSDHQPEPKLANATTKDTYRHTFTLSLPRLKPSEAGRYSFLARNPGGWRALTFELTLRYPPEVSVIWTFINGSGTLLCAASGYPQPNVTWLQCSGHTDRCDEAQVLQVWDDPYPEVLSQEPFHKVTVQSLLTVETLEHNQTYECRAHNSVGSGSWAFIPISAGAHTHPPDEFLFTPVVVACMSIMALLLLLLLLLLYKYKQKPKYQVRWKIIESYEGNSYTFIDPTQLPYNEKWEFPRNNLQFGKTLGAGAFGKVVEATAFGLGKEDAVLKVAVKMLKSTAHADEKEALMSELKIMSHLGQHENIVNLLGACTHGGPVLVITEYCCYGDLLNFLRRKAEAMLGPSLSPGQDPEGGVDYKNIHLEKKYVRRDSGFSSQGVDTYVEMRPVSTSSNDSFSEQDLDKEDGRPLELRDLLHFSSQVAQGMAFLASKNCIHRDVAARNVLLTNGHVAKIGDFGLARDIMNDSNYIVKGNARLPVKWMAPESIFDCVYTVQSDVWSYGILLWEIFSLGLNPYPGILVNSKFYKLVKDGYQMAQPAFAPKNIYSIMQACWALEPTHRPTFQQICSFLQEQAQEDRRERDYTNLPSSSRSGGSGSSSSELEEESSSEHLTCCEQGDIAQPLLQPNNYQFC
Chain of Myosin-IIIb (Homo sapiens) (Q8WXR4 whole entry, canonical isoform): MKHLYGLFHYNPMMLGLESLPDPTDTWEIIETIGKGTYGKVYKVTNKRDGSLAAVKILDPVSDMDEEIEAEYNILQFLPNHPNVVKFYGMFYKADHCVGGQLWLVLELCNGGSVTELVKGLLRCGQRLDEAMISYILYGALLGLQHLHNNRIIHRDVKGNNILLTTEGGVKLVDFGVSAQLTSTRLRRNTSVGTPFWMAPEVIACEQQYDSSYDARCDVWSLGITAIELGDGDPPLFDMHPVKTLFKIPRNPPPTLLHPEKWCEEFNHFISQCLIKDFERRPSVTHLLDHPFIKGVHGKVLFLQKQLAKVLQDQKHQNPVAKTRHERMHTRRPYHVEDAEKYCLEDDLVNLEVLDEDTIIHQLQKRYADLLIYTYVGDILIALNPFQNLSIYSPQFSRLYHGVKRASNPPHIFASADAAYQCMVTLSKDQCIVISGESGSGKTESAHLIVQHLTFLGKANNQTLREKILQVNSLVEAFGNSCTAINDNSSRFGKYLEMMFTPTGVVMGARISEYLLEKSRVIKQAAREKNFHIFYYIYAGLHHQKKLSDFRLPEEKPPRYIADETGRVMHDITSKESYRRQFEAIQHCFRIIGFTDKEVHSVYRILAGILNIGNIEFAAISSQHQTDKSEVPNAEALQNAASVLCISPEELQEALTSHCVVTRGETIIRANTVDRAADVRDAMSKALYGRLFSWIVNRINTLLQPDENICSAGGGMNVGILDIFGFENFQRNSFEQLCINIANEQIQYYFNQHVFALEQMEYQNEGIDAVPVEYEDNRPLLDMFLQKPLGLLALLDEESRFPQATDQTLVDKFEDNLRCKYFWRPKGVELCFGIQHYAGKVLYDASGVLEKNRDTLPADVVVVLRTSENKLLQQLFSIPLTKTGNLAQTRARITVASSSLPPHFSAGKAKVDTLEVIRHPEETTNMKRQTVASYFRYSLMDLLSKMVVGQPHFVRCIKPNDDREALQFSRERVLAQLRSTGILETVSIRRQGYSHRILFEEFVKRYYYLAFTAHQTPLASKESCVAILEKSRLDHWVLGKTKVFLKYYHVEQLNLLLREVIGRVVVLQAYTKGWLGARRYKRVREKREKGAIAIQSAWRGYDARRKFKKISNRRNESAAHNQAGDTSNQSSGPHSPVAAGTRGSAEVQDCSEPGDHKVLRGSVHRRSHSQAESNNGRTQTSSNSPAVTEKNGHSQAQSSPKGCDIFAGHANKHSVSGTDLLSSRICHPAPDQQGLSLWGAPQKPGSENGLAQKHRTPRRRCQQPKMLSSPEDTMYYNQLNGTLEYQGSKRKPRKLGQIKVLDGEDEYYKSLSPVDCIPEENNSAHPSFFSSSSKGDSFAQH
Chain of Phosphatidylinositol 4-kinase beta (Homo sapiens) (Q9UBF8 2-816 limits assumed): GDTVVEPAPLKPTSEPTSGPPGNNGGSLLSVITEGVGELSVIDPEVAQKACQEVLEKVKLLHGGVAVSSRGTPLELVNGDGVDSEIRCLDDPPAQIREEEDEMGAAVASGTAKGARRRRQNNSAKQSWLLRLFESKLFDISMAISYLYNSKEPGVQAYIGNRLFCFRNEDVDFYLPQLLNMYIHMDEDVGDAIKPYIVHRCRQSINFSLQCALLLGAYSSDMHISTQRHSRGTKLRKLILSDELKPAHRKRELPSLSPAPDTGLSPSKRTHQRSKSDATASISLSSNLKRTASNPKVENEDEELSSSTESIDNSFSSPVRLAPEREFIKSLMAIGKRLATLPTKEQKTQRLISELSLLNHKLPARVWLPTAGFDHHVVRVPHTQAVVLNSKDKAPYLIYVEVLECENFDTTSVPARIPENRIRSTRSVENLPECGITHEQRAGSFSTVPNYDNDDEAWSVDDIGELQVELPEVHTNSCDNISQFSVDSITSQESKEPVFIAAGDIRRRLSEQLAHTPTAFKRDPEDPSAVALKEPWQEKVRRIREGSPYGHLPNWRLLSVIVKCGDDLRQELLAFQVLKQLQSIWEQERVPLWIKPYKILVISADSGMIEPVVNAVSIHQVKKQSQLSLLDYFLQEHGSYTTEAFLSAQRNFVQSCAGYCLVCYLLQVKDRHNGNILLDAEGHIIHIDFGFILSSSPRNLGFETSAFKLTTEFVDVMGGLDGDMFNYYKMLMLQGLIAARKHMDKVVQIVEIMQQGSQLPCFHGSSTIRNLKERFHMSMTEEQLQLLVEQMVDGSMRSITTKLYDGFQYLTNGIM
Chain of Tyrosine-protein kinase Blk (Homo sapiens) (P51451 2-505 limits assumed): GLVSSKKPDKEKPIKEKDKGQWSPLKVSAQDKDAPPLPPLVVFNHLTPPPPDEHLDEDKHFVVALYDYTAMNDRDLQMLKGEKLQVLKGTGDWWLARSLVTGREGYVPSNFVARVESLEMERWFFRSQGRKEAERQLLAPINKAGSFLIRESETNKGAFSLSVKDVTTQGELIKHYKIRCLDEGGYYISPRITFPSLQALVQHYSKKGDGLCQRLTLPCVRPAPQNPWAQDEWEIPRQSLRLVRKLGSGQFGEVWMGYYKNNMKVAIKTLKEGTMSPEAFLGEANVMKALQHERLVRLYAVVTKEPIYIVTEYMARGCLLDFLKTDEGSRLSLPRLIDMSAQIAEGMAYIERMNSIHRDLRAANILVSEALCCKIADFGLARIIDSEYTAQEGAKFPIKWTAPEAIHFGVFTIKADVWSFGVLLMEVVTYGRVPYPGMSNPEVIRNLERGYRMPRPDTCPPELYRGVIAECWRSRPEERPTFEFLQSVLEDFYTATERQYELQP
Chain of Alpha-2C adrenergic receptor (Homo sapiens) (P18825 whole entry): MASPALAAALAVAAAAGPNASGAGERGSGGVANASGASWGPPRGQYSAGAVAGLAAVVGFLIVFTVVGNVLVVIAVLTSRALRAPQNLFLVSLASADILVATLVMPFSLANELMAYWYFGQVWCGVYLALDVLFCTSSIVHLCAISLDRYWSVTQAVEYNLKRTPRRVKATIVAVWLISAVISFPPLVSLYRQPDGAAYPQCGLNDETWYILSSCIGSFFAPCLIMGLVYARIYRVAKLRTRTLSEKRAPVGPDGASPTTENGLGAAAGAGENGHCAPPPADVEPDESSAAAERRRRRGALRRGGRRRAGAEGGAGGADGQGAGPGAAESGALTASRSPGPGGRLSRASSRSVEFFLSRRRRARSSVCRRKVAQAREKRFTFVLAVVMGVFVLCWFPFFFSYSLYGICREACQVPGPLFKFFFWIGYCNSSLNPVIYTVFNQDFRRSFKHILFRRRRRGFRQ
Chain of Tyrosine-protein kinase HCK (Homo sapiens) (P08631 2-526 limits assumed): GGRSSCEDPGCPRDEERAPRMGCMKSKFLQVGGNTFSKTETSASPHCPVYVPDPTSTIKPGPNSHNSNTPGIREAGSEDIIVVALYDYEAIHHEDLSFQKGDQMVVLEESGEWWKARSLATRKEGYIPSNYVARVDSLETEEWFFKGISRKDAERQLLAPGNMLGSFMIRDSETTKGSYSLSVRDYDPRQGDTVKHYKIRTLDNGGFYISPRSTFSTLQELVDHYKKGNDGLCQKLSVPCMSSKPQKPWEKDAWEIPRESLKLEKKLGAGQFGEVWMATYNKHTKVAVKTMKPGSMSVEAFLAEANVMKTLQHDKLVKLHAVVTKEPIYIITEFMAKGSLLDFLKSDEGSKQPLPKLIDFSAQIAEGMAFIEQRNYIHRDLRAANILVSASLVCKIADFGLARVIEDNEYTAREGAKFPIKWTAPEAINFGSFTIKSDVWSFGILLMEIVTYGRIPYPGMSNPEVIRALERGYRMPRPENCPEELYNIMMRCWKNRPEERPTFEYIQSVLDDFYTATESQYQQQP

CCC(=O)N[C@H]1CC[C@@H](C(=O)N(C)c2ccc(-c3nc4ccccc4o3)cc2)C1 [BI 99179]
residual activity [1]: 72%
residual activity [2]: 88%
residual activity [3]: 72%
residual activity [4]: 86%
residual activity [5]: 85%
residual activity [6]: 86%
residual activity [7]: 88%
residual activity [8]: 97%
residual activity [9]: 100%
residual activity [10]: 85%
residual activity [11]: 93%
residual activity [12]: 82%
residual activity [13]: 100%
residual activity [14]: 74%
residual activity [15]: 87%
residual activity [16]: 91%
residual activity [17]: 78%
residual activity [18]: 100%
residual activity [19]: 100%
residual activity [20]: 100%
residual activity [21]: 100%
residual activity [22]: 100%
residual activity [23]: 97%
residual activity [24]: 100%
residual activity [25]: 91%
residual activity [26]: 87%
residual activity [27]: 100%
residual activity [28]: 100%
residual activity [29]: 73%
residual activity [30]: 80%
residual activity [31]: 98%
residual activity [32]: 92%
residual activity [33]: 77%
residual activity [34]: 100%
residual activity [35]: 100%
residual activity [36]: 99%
residual activity [37]: 100%
residual activity [38]: 75%
residual activity [39]: 100%
inhibition [40]: -9.45%
inhibition [41]: 21.1%
inhibition (Histamine H4 receptor): 39.3%
inhibition [42]: -5.31%
inhibition [43]: 9.78%

CCC(=O)N[C@@H]1CC[C@H](C(=O)N(C)c2ccc(-c3nc4ccccc4o3)cc2)C1 [BI 99990]
residual activity [1]: 86%
residual activity [2]: 92%
residual activity [3]: 77%
residual activity [4]: 79%
residual activity [5]: 94%
residual activity [6]: 99%
residual activity [7]: 74%
residual activity [8]: 100%
residual activity [9]: 100%
residual activity [10]: 100%
residual activity [11]: 88%
residual activity [12]: 100%
residual activity [13]: 100%
residual activity [14]: 98%
residual activity [15]: 100%
residual activity [16]: 100%
residual activity [17]: 62%
residual activity [18]: 100%
residual activity [19]: 100%
residual activity [20]: 100%
residual activity [21]: 100%
residual activity [22]: 100%
residual activity [23]: 100%
residual activity [24]: 100%
residual activity [25]: 93%
residual activity [26]: 100%
residual activity [27]: 98%
residual activity [28]: 89%
residual activity [29]: 74%
residual activity [30]: 95%
residual activity [31]: 100%
residual activity [32]: 70%
residual activity [33]: 100%
residual activity [34]: 100%
residual activity [35]: 100%
residual activity [36]: 86%
residual activity [37]: 100%
residual activity [38]: 100%
residual activity [39]: 97%
inhibition [40]: 4.47%
inhibition [41]: 0.94%
inhibition (Histamine H4 receptor): 55.3%
inhibition [42]: -2.55%
inhibition [43]: 38.3%

— ChEMBL document CHEMBL4507280 (2021)
